Measurements taken from ChEMBL document CHEMBL1149838, “Usimines A-C, bioactive usnic acid derivatives from the Antarctic lichen Stereocaulon alpinum” (J Nat Prod, 2008).

target: T1, Tyrosine-protein phosphatase non-receptor type 1 (Homo sapiens, UniProt P18031); assay: Inhibition of human recombinant PTP1B
T1 sequence (P18031 whole entry): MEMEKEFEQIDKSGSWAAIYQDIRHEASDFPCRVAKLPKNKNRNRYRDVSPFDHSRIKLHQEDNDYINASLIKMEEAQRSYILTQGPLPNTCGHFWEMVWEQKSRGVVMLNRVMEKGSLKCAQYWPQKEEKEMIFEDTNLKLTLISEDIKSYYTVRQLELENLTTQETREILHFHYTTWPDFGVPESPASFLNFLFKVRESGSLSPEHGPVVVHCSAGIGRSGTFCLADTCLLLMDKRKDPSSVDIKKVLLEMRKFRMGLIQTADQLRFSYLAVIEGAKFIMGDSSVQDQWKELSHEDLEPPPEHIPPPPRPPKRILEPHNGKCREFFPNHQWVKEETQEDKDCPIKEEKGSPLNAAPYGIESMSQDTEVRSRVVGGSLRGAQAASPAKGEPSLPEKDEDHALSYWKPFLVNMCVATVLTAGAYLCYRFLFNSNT

IC50	SMILES
15 µM	COC(=O)CC[C@H](/N=C(\C)C1=C(O)C=C2Oc3c(C(C)=O)c(O)c(C)c(O)c3[C@@]2(C)C1=O)C(=O)O [USIMINE A]
27.7 µM	CC(=O)c1c(O)c(C)c(O)c2c1OC1=CC(O)=C(/C(C)=N/[C@@H](CCC(=O)O)C(=O)O)C(=O)[C@@]12C [USIMINE B]
23.2 µM	CC(=O)c1c(O)c(C)c(O)c2c1OC1=CC(O)=C(/C(C)=N\[C@@H](CCC(=O)O)C(=O)O)C(=O)[C@@]12C [USIMINE C]

SMILES	IC50
CC(=O)C1=C(O)C=C2Oc3c(C(C)=O)c(O)c(C)c(O)c3[C@@]2(C)C1=O [(+)-USNIC ACID]	16.4 µM
